What was measured:
Assay in all cases: Bacterial panel testing, MIC by broth microdilution
Type in all cases: cell-based
Conditions in all cases: 20-24 hours growth
[1] = system: Bacillus atrophaeus
Method in brief: (§1)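 Strains grown 2-4 h, 37° C, MH or BHI broth per strain; McFarland-standardized, diluted in media. Cpd 10 μg/ml in DMSO, 2-fold serial dilution cols 2-12. Rifampicin included. 20-24 h growth; clear wells scored.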

[2] = system: Enterococcus faecium
Method in brief: as §1

[3] = system: Eschericia coli
Method in brief: as §1

[4] = system: Pseudomonas aeruginosa
Method in brief: as §1

[5] = system: Salmonella choleraesuis
Method in brief: as §1

[6] = system: Staphylococcus aureus
Method in brief: as §1

CSCCC(N)C(=O)NCC1OC2OC3C(CNC(=O)C(N)CCSC)OC(OC4C(CNC(=O)C(N)CCSC)OC(OC5C(CNC(=O)C(N)CCSC)OC(OC6C(CNC(=O)C(N)CCSC)OC(OC7C(CNC(=O)C(N)CCSC)OC(OC8C(CNC(=O)C(N)CCSC)OC(OC1C(O)C2O)C(O)C8O)C(O)C7O)C(O)C6O)C(O)C5O)C(O)C4O)C(O)C3O.Cl.Cl.Cl.Cl.Cl.Cl.Cl (stereo not drawn)
>200 µg/mL: MIC BA [1] | MIC EF [2] | MIC EC [3] | MIC PA [4] | MIC SC [5] | MIC SA [6]

O=C(Cn1ccnc1)NCC1OC2OC3C(CNC(=O)Cn4ccnc4)OC(OC4C(CNC(=O)Cn5ccnc5)OC(OC5C(CNC(=O)Cn6ccnc6)OC(OC6C(CNC(=O)Cn7ccnc7)OC(OC7C(CNC(=O)Cn8ccnc8)OC(OC8C(CNC(=O)Cn9ccnc9)OC(OC1C(O)C2O)C(O)C8O)C(O)C7O)C(O)C6O)C(O)C5O)C(O)C4O)C(O)C3O (stereo not drawn)
>200 µg/mL: MIC BA [1] | MIC EF [2] | MIC EC [3] | MIC PA [4] | MIC SC [5] | MIC SA [6]

OCC1OC(OCc2cn(CC3OC4OC5C(Cn6cc(COC7OC(CO)C(O)C(O)C7O)nn6)OC(OC6C(Cn7cc(COC8OC(CO)C(O)C(O)C8O)nn7)OC(OC7C(Cn8cc(COC9OC(CO)C(O)C(O)C9O)nn8)OC(OC8C(Cn9cc(COC%10OC(CO)C(O)C(O)C%10O)nn9)OC(OC9C(Cn%10cc(COC%11OC(CO)C(O)C(O)C%11O)nn%10)OC(OC%10C(Cn%11cc(COC%12OC(CO)C(O)C(O)C%12O)nn%11)OC(OC3C(O)C4O)C(O)C%10O)C(O)C9O)C(O)C8O)C(O)C7O)C(O)C6O)C(O)C5O)nn2)C(O)C(O)C1O (stereo not drawn)
>200 µg/mL: MIC BA [1] | MIC EF [2] | MIC EC [3] | MIC PA [4] | MIC SC [5] | MIC SA [6]

Cl.Cl.Cl.Cl.Cl.Cl.Cl.O=C(CN1CCOCC1)NCC1OC2OC3C(CNC(=O)CN4CCOCC4)OC(OC4C(CNC(=O)CN5CCOCC5)OC(OC5C(CNC(=O)CN6CCOCC6)OC(OC6C(CNC(=O)CN7CCOCC7)OC(OC7C(CNC(=O)CN8CCOCC8)OC(OC8C(CNC(=O)CN9CCOCC9)OC(OC1C(O)C2O)C(O)C8O)C(O)C7O)C(O)C6O)C(O)C5O)C(O)C4O)C(O)C3O (stereo not drawn)
>200 µg/mL: MIC BA [1] | MIC EF [2] | MIC EC [3] | MIC PA [4] | MIC SC [5] | MIC SA [6]

CC(C)(C)OC(=O)NCCCC[C@H](N)C(=O)NCC1OC2OC3C(CNC(=O)[C@@H](N)CCCCNC(=O)OC(C)(C)C)OC(OC4C(CNC(=O)[C@@H](N)CCCCNC(=O)OC(C)(C)C)OC(OC5C(CNC(=O)[C@@H](N)CCCCNC(=O)OC(C)(C)C)OC(OC6C(CNC(=O)[C@@H](N)CCCCNC(=O)OC(C)(C)C)OC(OC7C(CNC(=O)[C@@H](N)CCCCNC(=O)OC(C)(C)C)OC(OC8C(CNC(=O)[C@@H](N)CCCCNC(=O)OC(C)(C)C)OC(OC1C(O)C2O)C(O)C8O)C(O)C7O)C(O)C6O)C(O)C5O)C(O)C4O)C(O)C3O (stereo partly drawn)
>200 µg/mL: MIC BA [1] | MIC EF [2] | MIC EC [3] | MIC PA [4] | MIC SC [5] | MIC SA [6]

Cl.Cl.Cl.Cl.Cl.Cl.Cl.Cl.Cl.Cl.Cl.Cl.Cl.Cl.Cl.Cl.Cl.Cl.Cl.Cl.Cl.NCCCCC(N)C(=O)NC(CCCCN)C(=O)NCC1OC2OC3C(CNC(=O)C(CCCCN)NC(=O)C(N)CCCCN)OC(OC4C(CNC(=O)C(CCCCN)NC(=O)C(N)CCCCN)OC(OC5C(CNC(=O)C(CCCCN)NC(=O)C(N)CCCCN)OC(OC6C(CNC(=O)C(CCCCN)NC(=O)C(N)CCCCN)OC(OC7C(CNC(=O)C(CCCCN)NC(=O)C(N)CCCCN)OC(OC8C(CNC(=O)C(CCCCN)NC(=O)C(N)CCCCN)OC(OC1C(O)C2O)C(O)C8O)C(O)C7O)C(O)C6O)C(O)C5O)C(O)C4O)C(O)C3O (stereo not drawn)
>200 µg/mL: MIC BA [1] | MIC EF [2] | MIC EC [3] | MIC PA [4] | MIC SC [5] | MIC SA [6]

From patent US20110071108A1, “Beta-Cyclodextrin Derivatives as Antibacterial Agents” (Pinnacle Pharmaceuticals, Inc., priority 2005, published 2011)
